Laboratory results as given in article PMC4991450, “Protein arginine methyltransferase 1 may be involved in pregnane x receptor-activated overexpression of multidrug resistance 1 gene during acquired multidrug resistant” (Oncotarget, 2016).

Molecular target: Protein arginine methyltransferase 1 (PRMT1) (Homo sapiens, UniProt Q99873)
Experiment: Transzyme HMT PRMT1 fluorescence polarization enzyme assay, rescreened at […]
Assay type: biochemical

Protein arginine methyltransferase 1 (PRMT1), sequence (Q99873 whole entry): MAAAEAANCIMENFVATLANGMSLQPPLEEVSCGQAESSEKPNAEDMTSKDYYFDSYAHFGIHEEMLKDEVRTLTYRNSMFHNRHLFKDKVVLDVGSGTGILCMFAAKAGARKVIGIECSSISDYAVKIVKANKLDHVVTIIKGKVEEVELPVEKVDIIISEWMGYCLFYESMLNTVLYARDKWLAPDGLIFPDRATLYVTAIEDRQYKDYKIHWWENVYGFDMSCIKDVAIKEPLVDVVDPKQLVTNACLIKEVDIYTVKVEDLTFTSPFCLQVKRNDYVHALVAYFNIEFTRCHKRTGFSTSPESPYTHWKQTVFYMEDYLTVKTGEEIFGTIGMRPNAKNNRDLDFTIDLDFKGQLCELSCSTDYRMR

| Structure (SMILES) | Transzyme HMT PRMT1 fluorescence polarization enzyme assay, rescreened at 0-100 |
| --- | --- |
| C[C@@H]1O[C@@H](OC[C@H]2O[C@@H](Oc3c(-c4ccc(O)c(O)c4)oc4cc(O)cc(O)c4c3=O)[C@H](O)[C@@H](O)[C@@H]2O)[C@H](O)[C@H](O)[C@H]1O [rutin] | Five compounds were found to inhibit PRMT1 activity, including rutin, isoquercitrin, salvianolic acid A (SAA), naproxen, and felodipline |
| CCOC(=O)C1=C(C)NC(C)=C(C(=O)OC)C1c1cccc(Cl)c1Cl (centres unmarked) [felodipline] | Five compounds were found to inhibit PRMT1 activity, including rutin, isoquercitrin, salvianolic acid A (SAA), naproxen, and felodipline |
| COc1ccc2cc([C@H](C)C(=O)O)ccc2c1 [naproxen] | Five compounds were found to inhibit PRMT1 activity, including rutin, isoquercitrin, salvianolic acid A (SAA), naproxen, and felodipline |
| O=C(/C=C/c1ccc(O)c(O)c1/C=C/c1ccc(O)c(O)c1)O[C@H](Cc1ccc(O)c(O)c1)C(=O)O [salvianolic acid A] | Five compounds were found to inhibit PRMT1 activity, including rutin, isoquercitrin, salvianolic acid A (SAA), naproxen, and felodipline |
| O=c1c(O[C@@H]2O[C@H](CO)[C@@H](O)[C@H](O)[C@H]2O)c(-c2ccc(O)c(O)c2)oc2cc(O)cc(O)c12 [isoquercitrin] | Five compounds were found to inhibit PRMT1 activity, including rutin, isoquercitrin, salvianolic acid A (SAA), naproxen, and felodipline |
